# Measured values published in the supplement of paper PMC9663587.
# Legend:
# Paclitaxel = compound: CC(=O)O[C@H]1C(=O)[C@@]2(C)[C@H]([C@H](OC(=O)c3ccccc3)[C@]3(O)C[C@H](OC(=O)[C@H](O)[C@@H](NC(=O)c4ccccc4)c4ccccc4)C(C)=C1C3(C)C)[C@]1(OC(C)=O)CO[C@@H]1C[C@@H]2O [Paclitaxel]
# Ipatasertib/GDC0068 = compound: CC(C)NC[C@@H](C(=O)N1CCN(c2ncnc3c2[C@H](C)C[C@H]3O)CC1)c1ccc(Cl)cc1 [Ipatasertib/GDC0068]
# Luminespib/NVP-AUY922 = compound: CCNC(=O)c1noc(-c2cc(C(C)C)c(O)cc2O)c1-c1ccc(CN2CCOCC2)cc1 [Luminespib/NVP-AUY922]
# BSJ-01-175 = compound: CN(C)C/C=C/C(=O)Nc1ccc(O[C@@H]2CCC[C@@H](Nc3ncc(Cl)c(-c4c[nH]c5ccccc45)n3)C2)cc1 [BSJ-01-175]
# ABT-737 = compound: CN(C)CC[C@H](CSc1ccccc1)Nc1ccc(S(=O)(=O)NC(=O)c2ccc(N3CCN(Cc4ccccc4-c4ccc(Cl)cc4)CC3)cc2)cc1[N+](=O)[O-] [ABT-737]
# Flavopiridol [1] = compound: T1, CN1CC[C@H](c2c(O)cc(O)c3c(=O)cc(-c4ccccc4Cl)oc23)[C@H](O)C1 [Flavopiridol]
# Doxorubicin = compound: COc1cccc2c1C(=O)c1c(O)c3c(c(O)c1C2=O)C[C@@](O)(C(=O)CO)C[C@@H]3O[C@H]1C[C@H](N)[C@H](O)[C@H](C)O1 [Doxorubicin]
# Taselisib/GDC0032 = compound: Cc1nc(-c2cn3c(n2)-c2ccc(-c4cnn(C(C)(C)C(N)=O)c4)cc2OCC3)n(C(C)C)n1 [Taselisib/GDC0032]
# Olaparib/AZD2281 = compound: O=C(c1cc(Cc2n[nH]c(=O)c3ccccc23)ccc1F)N1CCN(C(=O)C2CC2)CC1 [Olaparib/AZD2281]
# YKL-5-124 = compound: C=CC(=O)Nc1ccc(C(=O)Nc2[nH]nc3c2CN(C(=O)N[C@H](CN(C)C)c2ccccc2)C3(C)C)cc1 [YKL-5-124]; experiment: GR value, 72 h; higher = faster growth (1 = untreated, <0 = killing);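 also: breast cancer and non-malignant breast epithelial lines, nine half-log doses, viable cells counted by Hoechst and LIVE/DEAD dye imaging versus time-zero plates and DMSO controls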
# BSJ-03-123 = compound: CC(=O)c1c(C)c2cnc(Nc3ccc(N4CCN(CCOCCOCCOCCNC(=O)COc5cccc6c5C(=O)N(C5CCC(=O)NC5=O)C6=O)CC4)cn3)nc2n(C2CCCC2)c1=O [BSJ-03-123]; experiment: as above
# [2] = compound: CC(=O)c1c(C)c2cnc(Nc3ccc(N4CCNCC4)cn3)nc2n(C2CCCC2)c1=O; experiment: as above
# [3] = compound: CCN1CCN(Cc2ccc(Nc3ncc(F)c(-c4cc(F)c5nc(C)n(C(C)C)c5c4)n3)nc2)CC1; experiment: as above
# [4] = compound: CCc1cnn2c(NCc3ccc[n+]([O-])c3)cc(N3CCCC[C@H]3CCO)nc12; experiment: as above
# LEE011/Ribociclib = compound: CN(C)C(=O)c1cc2cnc(Nc3ccc(N4CCNCC4)cn3)nc2n1C1CCCC1 [LEE011/Ribociclib]; experiment: as above
# THZ531 = compound: CN(C)C/C=C/C(=O)Nc1ccc(C(=O)N2CCC[C@@H](Nc3ncc(Cl)c(-c4c[nH]c5ccccc45)n3)C2)cc1 [THZ531]; experiment: as above
# Flavopiridol [5] = compound: T1, Flavopiridol; experiment: as above
# 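For GR50, 72 h in this document: breast cancer and non-malignant breast epithelial cell lines, Deep Dye Drop or Dye Drop imaging, nine half-log doses, GR normalized to time-zero plates and DMSO-only controls.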
cell line,measurement,setting,value
CAMA1,"GR50, 72 h",Paclitaxel,0.00227 µM
same,"GR50, 72 h",Ipatasertib/GDC0068,0.341 µM
same,"GR50, 72 h",Luminespib/NVP-AUY922,0.00885 µM
same,"GR50, 72 h",BSJ-01-175,0.101 µM
same,"GR50, 72 h",ABT-737,> 10 µM
same,"GR50, 72 h",Flavopiridol [1],0.178 µM
same,"GR50, 72 h",Doxorubicin,0.00747 µM
same,"GR50, 72 h",Taselisib/GDC0032,1.77 µM
same,"GR50, 72 h",Olaparib/AZD2281,> 10 µM
same,GR value,YKL-5-124; 0.001 µM,0.224 GR
same,GR value,YKL-5-124; 0.003162 µM,0.229 GR
same,GR value,YKL-5-124; 0.01 µM,0.0682 GR
same,GR value,YKL-5-124; 0.03162 µM,0.0899 GR
same,GR value,YKL-5-124; 0.1 µM,0.0659 GR
same,GR value,YKL-5-124; 0.3162 µM,-0.0547 GR
same,GR value,YKL-5-124; 1 µM,0.0323 GR
same,GR value,YKL-5-124; 3.162 µM,0.0041 GR
same,GR value,YKL-5-124; 10 µM,-0.591 GR
same,GR value,BSJ-03-123; 0.001 µM,0.778 GR
same,GR value,BSJ-03-123; 0.003162 µM,0.65 GR
same,GR value,BSJ-03-123; 0.01 µM,0.463 GR
same,GR value,BSJ-03-123; 0.03162 µM,0.391 GR
same,GR value,BSJ-03-123; 0.1 µM,0.264 GR
same,GR value,BSJ-03-123; 0.3162 µM,0.238 GR
same,GR value,BSJ-03-123; 1 µM,0.219 GR
same,GR value,BSJ-03-123; 3.162 µM,0.219 GR
same,GR value,BSJ-03-123; 10 µM,0.0155 GR
same,GR value,[2]; 0.0003162 µM,0.969 GR
same,GR value,[2]; 0.001 µM,0.973 GR
same,GR value,[2]; 0.003162 µM,0.94 GR
same,GR value,[2]; 0.01 µM,0.887 GR
same,GR value,[2]; 0.03162 µM,0.678 GR
same,GR value,[2]; 0.1 µM,0.442 GR
same,GR value,[2]; 0.3162 µM,0.303 GR
same,GR value,[2]; 1 µM,0.3 GR
same,GR value,[2]; 3.162 µM,0.288 GR
same,GR value,[3]; 0.001 µM,0.866 GR
same,GR value,[3]; 0.003162 µM,0.777 GR
same,GR value,[3]; 0.01 µM,0.44 GR
same,GR value,[3]; 0.03162 µM,0.272 GR
same,GR value,[3]; 0.1 µM,0.257 GR
same,GR value,[3]; 0.3162 µM,0.278 GR
same,GR value,[3]; 1 µM,0.285 GR
same,GR value,[3]; 3.162 µM,0.286 GR
same,GR value,[3]; 10 µM,0.223 GR
same,GR value,[4]; 0.0001 µM,0.942 GR
same,GR value,[4]; 0.0003162 µM,1.05 GR
same,GR value,[4]; 0.001 µM,1.01 GR
same,GR value,[4]; 0.003162 µM,1 GR
same,GR value,[4]; 0.01 µM,0.725 GR
same,GR value,[4]; 0.03162 µM,-0.0614 GR
same,GR value,[4]; 0.1 µM,-0.386 GR
same,GR value,[4]; 0.3162 µM,-0.417 GR
same,GR value,[4]; 1 µM,-0.494 GR
same,GR value,LEE011/Ribociclib; 0.001 µM,0.721 GR
same,GR value,LEE011/Ribociclib; 0.003162 µM,0.549 GR
same,GR value,LEE011/Ribociclib; 0.01 µM,0.365 GR
same,GR value,LEE011/Ribociclib; 0.03162 µM,0.492 GR
same,GR value,LEE011/Ribociclib; 0.1 µM,0.285 GR
same,GR value,LEE011/Ribociclib; 0.3162 µM,0.207 GR
same,GR value,LEE011/Ribociclib; 1 µM,0.21 GR
same,GR value,LEE011/Ribociclib; 3.162 µM,0.141 GR
same,GR value,LEE011/Ribociclib; 10 µM,0.159 GR
same,GR value,THZ531; 0.0001 µM,1.2 GR
same,GR value,THZ531; 0.0003162 µM,0.94 GR
same,GR value,THZ531; 0.001 µM,0.893 GR
same,GR value,THZ531; 0.003162 µM,1.16 GR
same,GR value,THZ531; 0.01 µM,1.26 GR
same,GR value,THZ531; 0.03162 µM,0.867 GR
same,GR value,THZ531; 0.1 µM,0.777 GR
same,GR value,THZ531; 0.3162 µM,-0.0843 GR
same,GR value,THZ531; 1 µM,-0.403 GR
same,GR value,Flavopiridol [5]; 0.0001 µM,1.25 GR
same,GR value,Flavopiridol [5]; 0.0003162 µM,1.12 GR
same,GR value,Flavopiridol [5]; 0.001 µM,0.73 GR
same,GR value,Flavopiridol [5]; 0.003162 µM,1.05 GR
same,GR value,Flavopiridol [5]; 0.01 µM,0.907 GR
same,GR value,Flavopiridol [5]; 0.03162 µM,0.862 GR
same,GR value,Flavopiridol [5]; 0.1 µM,0.807 GR
same,GR value,Flavopiridol [5]; 0.3162 µM,0.194 GR
same,GR value,Flavopiridol [5]; 1 µM,-0.111 GR
